Literature values, collected in US20230124124A1, “COMPOSITIONS AND METHODS FOR MYOPIA CONTROL AND ORTHOKERATOLOGY LENSES TREATMENT” (Ocular Science, Inc., priority 2021, published 2023).

Key:
corneas = conditions: one week of treatment
[1] = system: human corneal epithelial cells; conditions: 0.01% BAK; within hours

benzalkonium chloride [BAK]
aqueous tear production (corneas): significantly reduced
fluorescein staining (corneas): increased
inflammatory cell infiltration (corneas): increased
stromal nerve fiber density (NFD) (corneas): significantly reduced
effect on human corneal epithelial cells [1]: immediate cell retraction, cessation of normal cytokinesis and mitotic activity, and degeneration of human corneal epithelial cells
